Values joined by “and” are separate entries in the source; they are usually repeats but may differ in a detail not shown here. Equal entries are not always repeated. Where two headings read alike, the source gives them in different places.
What was measured:
[1] = test system: EGFR mutant expressing Ba/F3 cells; test: Cell viability, ALK inhibitors on Ba/F3 with any of the EGFR mutants (summary statements); format: cell-based, mouse; settings: FIG. 6A-D, FIG. 7A-D
[2] = test system: EGFR signal transductions in EGFR mutants expressing Ba/F3 cells; test: Western blotting of EGFR signal transductions in EGFR mutants expressing Ba/F3 cells (summary statements); format: cell-based, mouse; settings: FIG. 8A-D; L858R-based lines, not shown
[3] = biological target: EGFR exon 19 deletion mutant (del19) expressing Ba/F3 cells (Homo sapiens, UniProt P00533, DEL746-750, cells depend on it); test: CellTiter-Glo cell viability, Ba/F3 EGFR mutant
EGFR exon 19 deletion mutant (del19) expressing Ba/F3 cells, sequence (P00533 with tags, fused parts or gaps DEL746-750): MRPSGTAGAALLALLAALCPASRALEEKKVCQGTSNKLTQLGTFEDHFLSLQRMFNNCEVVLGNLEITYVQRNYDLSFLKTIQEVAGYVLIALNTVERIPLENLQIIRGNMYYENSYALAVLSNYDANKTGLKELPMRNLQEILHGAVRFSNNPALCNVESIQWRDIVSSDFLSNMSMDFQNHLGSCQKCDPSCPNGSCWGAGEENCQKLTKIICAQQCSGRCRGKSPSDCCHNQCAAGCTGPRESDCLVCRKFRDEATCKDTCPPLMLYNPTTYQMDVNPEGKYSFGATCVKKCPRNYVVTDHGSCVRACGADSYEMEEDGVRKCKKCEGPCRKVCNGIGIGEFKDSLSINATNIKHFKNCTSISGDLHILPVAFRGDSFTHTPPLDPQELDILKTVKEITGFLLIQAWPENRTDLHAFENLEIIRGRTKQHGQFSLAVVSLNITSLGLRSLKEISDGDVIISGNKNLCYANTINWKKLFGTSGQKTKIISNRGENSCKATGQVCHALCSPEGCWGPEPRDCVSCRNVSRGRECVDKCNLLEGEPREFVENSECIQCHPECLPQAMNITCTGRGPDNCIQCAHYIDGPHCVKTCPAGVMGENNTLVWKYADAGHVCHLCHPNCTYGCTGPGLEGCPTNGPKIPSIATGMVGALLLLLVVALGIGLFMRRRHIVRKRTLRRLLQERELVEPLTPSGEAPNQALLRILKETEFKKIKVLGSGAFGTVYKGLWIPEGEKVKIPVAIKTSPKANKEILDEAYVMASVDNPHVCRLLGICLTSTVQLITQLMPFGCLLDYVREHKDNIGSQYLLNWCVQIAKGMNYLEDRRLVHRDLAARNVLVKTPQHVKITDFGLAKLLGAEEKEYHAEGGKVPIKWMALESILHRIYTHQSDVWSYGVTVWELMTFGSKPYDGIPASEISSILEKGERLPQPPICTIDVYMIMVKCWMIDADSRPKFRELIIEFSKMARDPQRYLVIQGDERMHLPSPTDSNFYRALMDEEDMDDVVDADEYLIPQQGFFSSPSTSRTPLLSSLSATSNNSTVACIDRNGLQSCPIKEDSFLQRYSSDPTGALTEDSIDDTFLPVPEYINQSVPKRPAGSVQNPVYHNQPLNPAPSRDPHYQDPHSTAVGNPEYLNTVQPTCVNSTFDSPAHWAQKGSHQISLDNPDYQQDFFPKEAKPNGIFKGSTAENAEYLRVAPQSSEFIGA

[4] = biological target: EGFR L858R mutant expressing Ba/F3 cells (Homo sapiens, UniProt P00533, L858R, cells depend on it); test: CellTiter-Glo cell viability, Ba/F3 EGFR mutant; format: cell-based, mouse; settings: read-out: IC50 (nM) L858R
EGFR L858R mutant expressing Ba/F3 cells, sequence (P00533 whole entry L858R): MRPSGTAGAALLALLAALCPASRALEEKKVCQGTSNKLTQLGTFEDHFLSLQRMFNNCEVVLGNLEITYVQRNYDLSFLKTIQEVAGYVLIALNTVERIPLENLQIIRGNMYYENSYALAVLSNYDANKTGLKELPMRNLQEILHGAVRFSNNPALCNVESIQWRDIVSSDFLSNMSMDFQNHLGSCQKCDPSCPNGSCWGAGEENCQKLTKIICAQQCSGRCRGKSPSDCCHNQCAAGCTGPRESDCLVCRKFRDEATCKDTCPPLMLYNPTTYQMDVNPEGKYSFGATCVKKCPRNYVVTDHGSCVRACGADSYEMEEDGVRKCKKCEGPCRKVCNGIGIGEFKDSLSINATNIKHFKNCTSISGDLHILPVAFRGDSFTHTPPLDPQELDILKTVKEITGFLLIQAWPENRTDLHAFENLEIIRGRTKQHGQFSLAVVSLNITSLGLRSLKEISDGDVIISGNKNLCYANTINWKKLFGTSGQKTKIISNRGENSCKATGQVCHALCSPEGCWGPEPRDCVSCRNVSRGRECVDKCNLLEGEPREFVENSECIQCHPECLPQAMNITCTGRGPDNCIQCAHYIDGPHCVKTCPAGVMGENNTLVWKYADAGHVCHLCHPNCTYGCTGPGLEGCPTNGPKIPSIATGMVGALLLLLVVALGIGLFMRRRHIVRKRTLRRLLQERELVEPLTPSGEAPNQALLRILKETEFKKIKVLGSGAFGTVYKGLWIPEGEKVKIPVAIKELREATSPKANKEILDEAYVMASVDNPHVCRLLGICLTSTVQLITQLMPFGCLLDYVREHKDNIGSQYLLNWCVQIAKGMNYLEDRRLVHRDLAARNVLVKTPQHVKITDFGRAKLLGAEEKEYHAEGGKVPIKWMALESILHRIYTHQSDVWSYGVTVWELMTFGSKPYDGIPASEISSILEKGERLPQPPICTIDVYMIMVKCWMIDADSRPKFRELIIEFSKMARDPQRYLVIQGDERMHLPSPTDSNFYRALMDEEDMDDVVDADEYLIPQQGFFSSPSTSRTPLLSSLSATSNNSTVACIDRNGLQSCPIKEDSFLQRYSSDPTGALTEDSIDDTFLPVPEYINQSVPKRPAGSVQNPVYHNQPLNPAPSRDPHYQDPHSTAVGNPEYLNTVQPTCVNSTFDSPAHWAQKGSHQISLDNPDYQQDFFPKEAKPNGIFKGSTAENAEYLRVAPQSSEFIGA
Description: (§1) Ba/F3 mutation lines were prepared in the same manner as above to determine the cell viabilities by CellTiter-Glo assay.

[5] = biological target: EGFR T790M/L858R mutant expressing Ba/F3 cells (Homo sapiens, UniProt P00533, T790M/L858R, cells depend on it); test: CellTiter-Glo cell viability, Ba/F3 EGFR mutant; format: cell-based, mouse; settings: Table 5, ALK inhibitors, read-out: IC50 (nM) T/L
EGFR T790M/L858R mutant expressing Ba/F3 cells, sequence (P00533 whole entry T790M/L858R): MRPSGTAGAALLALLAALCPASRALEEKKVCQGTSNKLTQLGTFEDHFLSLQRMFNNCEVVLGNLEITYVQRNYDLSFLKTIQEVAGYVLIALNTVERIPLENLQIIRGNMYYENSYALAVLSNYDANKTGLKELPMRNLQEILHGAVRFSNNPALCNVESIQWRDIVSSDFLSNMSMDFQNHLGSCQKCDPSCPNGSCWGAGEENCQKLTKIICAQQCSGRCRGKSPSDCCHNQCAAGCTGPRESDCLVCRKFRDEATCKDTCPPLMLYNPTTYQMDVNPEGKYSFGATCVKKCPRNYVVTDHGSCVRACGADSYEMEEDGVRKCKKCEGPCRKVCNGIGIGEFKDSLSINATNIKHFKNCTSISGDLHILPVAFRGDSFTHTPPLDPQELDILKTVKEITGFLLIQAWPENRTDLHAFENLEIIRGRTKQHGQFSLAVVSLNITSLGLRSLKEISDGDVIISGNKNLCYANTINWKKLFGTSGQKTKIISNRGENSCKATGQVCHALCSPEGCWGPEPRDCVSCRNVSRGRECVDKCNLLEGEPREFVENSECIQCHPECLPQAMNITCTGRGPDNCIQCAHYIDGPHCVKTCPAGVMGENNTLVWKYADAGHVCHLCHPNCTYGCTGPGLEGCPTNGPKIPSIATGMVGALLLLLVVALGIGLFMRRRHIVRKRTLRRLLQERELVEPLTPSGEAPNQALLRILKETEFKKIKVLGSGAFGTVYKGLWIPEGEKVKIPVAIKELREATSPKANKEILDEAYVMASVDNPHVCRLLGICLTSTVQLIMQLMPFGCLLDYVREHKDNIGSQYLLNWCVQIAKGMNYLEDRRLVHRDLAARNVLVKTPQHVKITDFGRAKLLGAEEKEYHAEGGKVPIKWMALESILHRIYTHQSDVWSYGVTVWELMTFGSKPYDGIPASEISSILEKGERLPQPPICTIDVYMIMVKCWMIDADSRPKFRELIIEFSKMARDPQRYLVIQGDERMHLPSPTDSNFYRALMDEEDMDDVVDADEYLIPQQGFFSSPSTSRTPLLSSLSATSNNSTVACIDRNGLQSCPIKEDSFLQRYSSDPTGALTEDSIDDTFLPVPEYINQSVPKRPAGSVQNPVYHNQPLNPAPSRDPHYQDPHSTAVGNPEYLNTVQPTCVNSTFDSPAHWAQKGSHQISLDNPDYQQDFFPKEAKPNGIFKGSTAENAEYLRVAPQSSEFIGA
Description: as §1

[6] = biological target: EGFR T790M/exon 19 deletion mutant (T790M/del19) expressing Ba/F3 cells (Homo sapiens, UniProt P00533, DEL746-750/T790M, cells depend on it); test: CellTiter-Glo cell viability, Ba/F3 EGFR mutant
EGFR T790M/exon 19 deletion mutant (T790M/del19) expressing Ba/F3 cells, sequence (P00533 with tags, fused parts or gaps DEL746-750/T790M): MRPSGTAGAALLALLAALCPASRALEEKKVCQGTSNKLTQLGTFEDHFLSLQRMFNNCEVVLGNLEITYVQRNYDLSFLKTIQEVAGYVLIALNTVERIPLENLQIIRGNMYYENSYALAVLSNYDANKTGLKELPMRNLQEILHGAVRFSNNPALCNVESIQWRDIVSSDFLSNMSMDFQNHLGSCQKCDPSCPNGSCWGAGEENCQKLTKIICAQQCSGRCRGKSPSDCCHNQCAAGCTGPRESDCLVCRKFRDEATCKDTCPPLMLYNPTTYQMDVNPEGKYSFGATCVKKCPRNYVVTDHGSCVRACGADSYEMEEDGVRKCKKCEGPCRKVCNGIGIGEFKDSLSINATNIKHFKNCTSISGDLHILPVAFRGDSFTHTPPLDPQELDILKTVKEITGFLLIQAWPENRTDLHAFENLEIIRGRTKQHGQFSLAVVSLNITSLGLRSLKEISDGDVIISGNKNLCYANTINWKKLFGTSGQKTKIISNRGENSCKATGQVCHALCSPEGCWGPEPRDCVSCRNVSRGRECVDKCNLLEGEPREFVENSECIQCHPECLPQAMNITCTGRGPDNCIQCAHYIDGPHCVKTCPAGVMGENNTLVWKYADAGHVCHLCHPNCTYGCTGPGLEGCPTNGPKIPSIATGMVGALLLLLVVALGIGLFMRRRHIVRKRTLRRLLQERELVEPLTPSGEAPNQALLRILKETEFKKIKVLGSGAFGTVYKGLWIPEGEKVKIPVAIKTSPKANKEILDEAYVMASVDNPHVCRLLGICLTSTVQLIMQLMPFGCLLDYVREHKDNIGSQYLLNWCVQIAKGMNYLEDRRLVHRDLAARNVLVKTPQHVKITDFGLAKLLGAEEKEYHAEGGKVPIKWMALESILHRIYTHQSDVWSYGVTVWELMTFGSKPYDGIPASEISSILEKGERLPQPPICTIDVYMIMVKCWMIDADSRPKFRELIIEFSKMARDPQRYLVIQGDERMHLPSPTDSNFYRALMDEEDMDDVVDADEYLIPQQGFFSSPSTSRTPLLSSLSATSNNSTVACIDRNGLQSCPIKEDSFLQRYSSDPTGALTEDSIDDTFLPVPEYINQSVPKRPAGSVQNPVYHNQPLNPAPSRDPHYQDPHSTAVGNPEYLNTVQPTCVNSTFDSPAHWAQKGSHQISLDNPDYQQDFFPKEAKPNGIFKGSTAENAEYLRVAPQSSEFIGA

[7] = test system: Ba/F3 cells expressing the T790M/del19 mutant; test: SCID mice transplanted with EGFR mutant expressing Ba/F3; settings: 50 mg/kg osimertinib, 75 mg/kg brigatinib, oral once daily; FIG. 12B
[8] = test system: A431 wherein EGFR is amplified; test: Cell growth of wild type EGFR expressing cells; format: cell-based, human; settings: FIG. 11
Description: The analysis was carried out using A431 wherein EGFR is amplified and A549 and H460 which have a mutation at K-ras. A431 is a cell line derived from a human epithelioid cell cancer and A549 and H460 are cell lines derived from human lung cancers. Note that, EGFR has no mutations despite A431 being amplified, and EGFR also has no mutations in A549 and H460.

[9] = test system: human lung cancer cell line PC9 (EGFR exon 19 deletion mutant); format: cell-based
[10] = test system: phosphorylation of EGFR and downstream signal transductions in triple-mutant expressing PC9 cell line; test: Western blotting of EGFR signal, PC9 triple-mutant; format: cell-based, human; settings: FIG. 10C, 10D
[11] = test system: T790M/exon 19 deletion mutant expressing PC9 cell line; format: cell-based, human
[12] = test system: EGFR T790M/exon19 deletion mutant expressing PC9 cells; test: Balb-c nu/nu mice transplanted with EGFR mutant expressing PC9; format: in vivo, mouse
Description: The tumor volume was measured in the same manner as above.
The results are shown from 2 mice per group.

[13] = test system: phosphorylation of EGFR and downstream signal transductions in T790M/exon 19 deletion mutant expressing PC9 cell line; test: Western blotting of EGFR signal, PC9 T790M; format: cell-based, human; settings: FIG. 10B, 10D
[14] = test system: phosphorylation of EGFR and downstream signal transductions in L858R mutant expressing Ba/F3 cells; test: Western blotting of EGFR phosphorylation and downstream signal; format: cell-based, mouse; settings: FIG. 4A
[15] = test system: phosphorylation of EGFR and downstream signal transductions in T790M/L858R mutant expressing Ba/F3 cells; test: as above; format: cell-based, mouse; settings: FIG. 4B
[16] = test system: phosphorylation of EGFR and downstream signal transductions in T790M/del19 Ba/F3 cells; test: as above; format: cell-based, mouse; settings: 10, 100, 1000 nM; FIG. 2E
[17] = test system: phosphorylation of EGFR and downstream signal transductions in parental line PC9; test: Western blotting of EGFR signal, PC9; format: cell-based, human; settings: FIG. 10A, 10D
[18] = test system: exon 19 deletion mutation; settings: cited from earlier work
[19] = test system: adenocarcinoma; settings: cited from earlier work
[20] = read-out: IC50 (nM) Del19, Table 4, ALK inhibitors
[21] = read-out: IC50 (nM) T/D, Table 4, ALK inhibitors, T790M/del19

COc1cc(N2CCC(N3CCN(C)CC3)CC2)ccc1Nc1ncc(Cl)c(Nc2ccccc2S(=O)(=O)C(C)C)n1 [TAE684]
cell growth suppression effect on Ba/F3 with EGFR mutant having any of the mutations (in words) [1]: did not substantially demonstrate the cell growth suppression effect | inhibitory activity against the EGFR signal transductions (in words) [2]: did not substantially demonstrate the inhibitory effect on the EGFR signal transductions even when treated at a high concentration of 1 μM

Cc1cc(Nc2ncc(Cl)c(Nc3ccccc3S(=O)(=O)C(C)C)n2)c(OC(C)C)cc1C1CCNCC1 [ceritinib]
GI50 [3, 20]: 524 nM | cell growth suppression effect on Ba/F3 with EGFR mutant having any of the mutations (in words) [1]: did not substantially demonstrate the cell growth suppression effect | GI50 ([4]; Table 5, ALK inhibitors): 1160 nM | GI50 [5]: 685 nM | inhibitory activity against the EGFR signal transductions (in words) [2]: did not substantially demonstrate the inhibitory effect on the EGFR signal transductions even when treated at a high concentration of 1 μM

COc1cc(N2CCC(N3CCN(C)CC3)CC2)ccc1Nc1ncnc(Nc2ccccc2S(=O)(=O)C(C)C)n1 [ASP3026]
GI50 [6, 21]: 2170 nM | GI50 [3, 20]: 450 nM | cell growth suppression effect on Ba/F3 with EGFR mutant having any of the mutations (in words) [1]: did not substantially demonstrate the cell growth suppression effect | GI50 ([4]; Table 5, ALK inhibitors): 948 nM | GI50 [5]: 1690 nM | inhibitory activity against the EGFR signal transductions (in words) [2]: did not substantially demonstrate the inhibitory effect on the EGFR signal transductions even when treated at a high concentration of 1 μM

C=CC(=O)Nc1cc(Nc2nccc(-c3cn(C)c4ccccc34)n2)c(OC)cc1N(C)CCN(C)C [osimertinib]
tumor growth suppression effect (tumor volume, in words) [7]: had the effect | cell growth suppression (in words) [8]: suppress the cell growth | cell growth suppression effect (in words) [9]: demonstrated the cell growth suppression effects | suppression of phosphorylation of EGFR and downstream signal (in words) [10]: neither of afatinib, osimertinib, or gefitinib demonstrated the suppression effect | cell growth suppression effect (in words) [11]: extremely strong cell growth suppression effect | effect on the tumor growth (tumor volume, in words) ([12]; 50 mg/kg osimertinib, 75 mg/kg brigatinib, oral once daily, FIG. 13A): notable effect on the tumor growth | survival (Kaplan-Meier, in words) ([12]; FIG. 13B): alive during the observation period | suppression of phosphorylation of EGFR and downstream signal (in words) [13]: demonstrated the effects of suppressing the phosphorylation | suppression of phosphorylation of EGFR and downstream signal (in words) [14]: suppression effect, despite being weaker than afatinib | suppression of phosphorylation of EGFR and downstream signal (in words) [15]: strongest suppression effect | suppression of phosphorylation of EGFR and downstream signal (in words) [16]: strongly suppressed the phosphorylation of EGFR | suppression of phosphorylation of EGFR and downstream signal (in words) [17]: also very strongly suppressed the phosphorylation

O=C(Nc1nccs1)C(c1cc(F)ccc1O)N1Cc2ccccc2C1=O (centres unmarked) [EAI045]
effectiveness on the exon 19 deletion mutation (in words) [18]: not effective on the exon 19 deletion mutation

COc1cc2ncnc(Nc3ccc(F)c(Cl)c3)c2cc1OCCCN1CCOCC1 [gefitinib]
PFS (progression-free survival) ([19]; EGFR gene mutation-positive group): 9.5 months | PFS (progression-free survival) ([19]; mutation negative group): 1.5 months

COc1cc(N2CCC(N3CCN(C)CC3)CC2)ccc1Nc1ncc(Cl)c(Nc2ccccc2P(C)(C)=O)n1 [brigatinib]
GI50 ([6]; read-out: IC50 (nM) T790M/del19, egfr t790m/exon 19 deletion mutant (t790m/del19) expressing ba/f3 cells): 150 nM | GI50 ([6]; read-out: IC50 (nM) T/D, egfr t790m/exon 19 deletion mutant (t790m/del19) expressing ba/f3 cells): 150 nM | GI50 ([3]; read-out: IC50 (nM) Del19, egfr exon 19 deletion mutant (del19) expressing ba/f3 cells): 43.7 nM | GI50 ([3]; read-out: IC50 (nM) del19, egfr exon 19 deletion mutant (del19) expressing ba/f3 cells): 43.7 nM | GI50 ([4]; egfr l858r mutant expressing ba/f3 cells): 207 nM and 133 nM

COc1cc(N2CCC(N(C)C)CC2)ccc1Nc1ncc(Cl)c(Nc2ccccc2P(C)(C)=O)n1 [AP26113-analogue, AP26113-analog]
GI50 [6, 21]: 139 nM | suppression of phosphorylation of EGFR and downstream signal (in words) [10]: demonstrated the suppression effects on the phosphorylation of EGFR | GI50 [3, 20]: 36.9 nM | cell growth suppression effect on Ba/F3 with EGFR mutant having any of the mutations (in words) [1]: strong cell growth suppression effects | suppression of phosphorylation of EGFR and downstream signal (in words) [13]: equal suppression effect to brigatinib | GI50 ([4]; Table 5, ALK inhibitors): 92.1 nM | GI50 [5]: 36 nM | inhibitory activity against the EGFR signal transductions (in words) [2]: demonstrated the inhibitory activity against the EGFR signal transductions | suppression of phosphorylation of EGFR and downstream signal (in words) [17]: the effect was weaker compared to afatinib

COc1cc(N2CCC(N)CC2)ccc1Nc1ncc(Cl)c(-c2c[nH]c3ccccc23)n1 [AZD3463]
GI50 [6, 21]: 175 nM | suppression of phosphorylation of EGFR and downstream signal (in words) [10]: had the effect of suppressing the phosphorylation of the EGFR signal transductions | GI50 [3, 20]: 90 nM | cell growth suppression effect on Ba/F3 with EGFR mutant having any of the mutations (in words) [1]: strong cell growth suppression effects | suppression of phosphorylation of EGFR and downstream signal (in words) [13]: confirmed to have the effect of suppressing the phosphorylation of EGFR | GI50 ([4]; Table 5, ALK inhibitors): 287 nM | GI50 [5]: 184 nM | suppression of phosphorylation of EGFR and downstream signal (in words) [17]: confirmed to have the effect of suppressing the phosphorylation of EGFR

Reference: US10813933B2, “Therapeutic agent for lung cancer that has acquired EGFR-TKI resistance” (JAPANESE FOUNDATION FOR CANCER RESEARCH, priority 2016, dated 2020)
